In patent US20250333371A1, “COMPOUNDS” (PSYLO PTY LTD, priority 2022, published 2025):

Target: T1, 5-HT2B (Homo sapiens, UniProt P41595)
T1 construct: host or cells: CHO-K1
Assay: FLIPR Ca2+ flux functional assay, 5-HT2B receptor (stably transfected CHO-K1)
Type: cell-based
Procedure: Activity at 5-HT2A, 5-HT2B and 5-HT2C receptors was determined using a FLIPR Ca^2+ flux assay at WuXi AppTec Co. Ltd. (Hong Kong) Discovery Biology Unit according to their standard protocols. Briefly, stably transfected cells expressing the receptor of interest (HEK293 for 5-HT2A and 5-HT2C; CHO-K1 for 5-HT2B) were grown and plated in a 384 well plate and incubated at 37° C. and 5% CO2 overnight. A 250 mM stock solution of probenecid in FLIPR calcium assay buffer (10 mL) was freshly prepared and combined with a fluorescent dye (Fluo-4 Direct) to give a final assay concentration of 2.5 mM. Reference compounds were 4-fold serially diluted and the screening compounds were 3-fold serially diluted in 100% DMSO for 10 points using Agilent Bravo, and 750 nL was added to a 384 well compound plate using Echo along with 30 μL assay buffer. The fluorescent dye was then added to the assay plate along with assay buffer to a final volume of 40 μL. The cell plate was incubated for 50 min at 37° C. and 5% CO2 and placed into the FLIPR Tetra along with the compound plate. 10 μL of references and compounds were then transferred from the compound plate into the cell plate and the fluorescent signal was read.

T1 sequence (P41595 whole entry): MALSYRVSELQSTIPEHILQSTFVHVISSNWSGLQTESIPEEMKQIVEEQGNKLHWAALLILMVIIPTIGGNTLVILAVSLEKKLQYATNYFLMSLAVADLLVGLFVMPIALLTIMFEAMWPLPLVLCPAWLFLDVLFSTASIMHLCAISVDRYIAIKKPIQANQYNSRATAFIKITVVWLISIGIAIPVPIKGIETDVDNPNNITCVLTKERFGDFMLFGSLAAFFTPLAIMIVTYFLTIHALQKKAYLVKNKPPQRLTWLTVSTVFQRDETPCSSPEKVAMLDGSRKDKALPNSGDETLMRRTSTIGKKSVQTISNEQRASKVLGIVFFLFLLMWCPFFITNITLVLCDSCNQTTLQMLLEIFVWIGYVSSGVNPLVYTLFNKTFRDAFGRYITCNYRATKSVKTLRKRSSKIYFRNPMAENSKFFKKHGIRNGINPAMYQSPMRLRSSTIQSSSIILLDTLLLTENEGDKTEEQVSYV

Q: What does the source list for COc1ccc2cccc(CCN(C)C(C)C)c2c1 [Example I-7, N-(2-(7-methoxynaphthalen-1-yl)ethyl)-N-methylpropan-2-amine]?
A: EC50: > 10 µM; Emax (agonist activity, Ca2+ flux, CHO-K1): 36%
